These are literature values, as cited in US8506932B2, “Tetracyclic indole derivatives as in vivo imaging agents and having peripheralbenzodiazepine receptor affinity (PBR)” (Hammersmith Imanet Limited, priority 2005, dated 2013).

For series [1] the following is noted: stated as known limitation.
For another series, the target named is PBR (Homo sapiens, UniProt P30536). Particulars: stated as known limitation.
Sequence of PBR (P30536 whole entry, species assumed): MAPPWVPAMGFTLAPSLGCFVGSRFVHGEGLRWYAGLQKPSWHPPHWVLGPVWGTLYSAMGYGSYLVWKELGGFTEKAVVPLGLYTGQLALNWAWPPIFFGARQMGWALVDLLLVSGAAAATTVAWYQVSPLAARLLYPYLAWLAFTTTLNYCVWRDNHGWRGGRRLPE

As to `CC[C@@H](C)N([11CH3])C(=O)c1cc2ccccc2c(-c2ccccc2Cl)n1` [(R)-[11C]PK11195], the protein binding entry in series [1] is “high”. Moreover, at PBR, the “specific to non-specific binding” value was “low”.
